TGI and GI50 data for 20 compounds are collected here from PubChem BioAssay (NCI).

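A five-concentration, 48-hour dose response in 96-well plates underlies each endpoint, interpolated linearly between surrounding concentrations. GI50 is the concentration that inhibits growth by half. TGI is the concentration that stops growth completely.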

Common to all, as to assay: DTP human tumour cell line panel, 48 h
For assay [1], the system named is TK-10 renal.
Assay [2] deals with HT29 colon.
The subject of assay [3] is OVCAR-3 ovarian.
Assay [4] deals with LOX IMVI melanoma.
For assay [5], the system named is SF-268 CNS.
Assay [6] has as its system BT-549 breast.
The test system of assay [7] is HCT-116 colon.
The subject of assay [8] is NCI-H460 lung.
Assay [9] concerns RXF 393 renal.
Assay [10] concerns HCC-2998 colon.

On to `O=C(O)CNC(=O)C1NC(C(F)(F)F)(C(F)(F)F)OC1(C(F)(F)F)C(F)(F)F` (stereo unspecified), for which the TGI in assay [1], in assay [2], in assay [3], in assay [4], in [5] and in assay [6] was > 100 µM throughout. The TGI in assay [7], in assay [8] and in assay [9] was > 100 µM in each case.

As for `CC1(C)OC2COC(c3[nH]nc4c(=O)[nH]c(=O)[nH]c34)C2O1` (stereo unspecified), the TGI in [1], in assay [2], in assay [3], in [4], in assay [5] and in assay [6] was > 100 µM each time. The TGI in assay [7], in assay [8] and in assay [9] was > 100 µM each time.

As for `N.N.NCCCCCN.O=C([O-])CC(=O)[O-].O=C([O-])CC(=O)[O-].[Pt+4].[Pt+4]`, the GI50 in [10] is > 100 µM; in assay [1], > 100 µM; in assay [2], > 100 µM; in [3], > 100 µM; in assay [4], > 100 µM; in assay [5], 71.4 µM. Moreover, the results for the GI50 in [7], in assay [8] and in assay [9] were > 100 µM, 17.4 µM and > 100 µM, respectively. In addition, the TGI in [10], in assay [1], in [2], in [3], in [4] and in assay [5] was > 100 µM in each case. Also, the TGI in assay [7], in assay [8] and in assay [9] was > 100 µM in each case.

Take `CCOc1ncnc2ccc(Cl)c(I)c12`: the TGI in assay [10], in [1], in [2], in [3], in assay [4] and in [5] was > 100 µM throughout. Moreover, the TGI in [7] was > 100 µM; in assay [8], > 100 µM; in [9], 60.7 µM.

Take `S=C1SCN(C2CCCCCCCCCCC2)CN1C1CCCCCCCCCCC1`: the TGI in assay [1], in [2], in assay [3], in assay [4], in assay [5] and in assay [6] was > 100 µM each time. Also, the TGI in [7], in [8] and in assay [9] was > 100 µM each time.

Regarding `COc1cc(/C=C2\Cc3ccccc3C2=O)cc(OC)c1OC`, the TGI in [10], in assay [1], in [2], in assay [3], in assay [4] and in assay [5] was > 100 µM each time. The TGI in assay [7], in [8] and in [9] was > 100 µM in each case.

Regarding `COc1ccc2c(c1)c(-c1ccc(-c3cn(C)c4ccc(OC)cc34)o1)cn2C`, the GI50 in [1] was 11 µM; in assay [2], 22 µM; in assay [3], 8.51 µM; in assay [4], 10.4 µM; in assay [5], 9.24 µM; in [6], 5.11 µM. The values for the GI50 in [7], in assay [8] and in assay [9] were 88 µM, 9.89 µM and 10.4 µM, respectively. Also, the TGI in assay [1] was > 100 µM; in [2] it was > 100 µM; in assay [3] it was 29.3 µM; in assay [4] it was > 100 µM; in assay [5], > 100 µM; in [6], 18.2 µM. The total growth inhibition concentration (TGI) in assay [7] was > 100 µM; in assay [8], > 100 µM; in assay [9] it was 44 µM.

For the compound `CN=C(N)NC`, the TGI in assay [10], in [1], in assay [2], in assay [3], in assay [4] and in assay [5] was > 100 µM throughout. For the same compound, the TGI in assay [7], in [8] and in [9] was > 100 µM throughout.

Regarding `O=C(COC(=O)c1cccc2c(=O)c3ccccc3[nH]c12)Nc1ccc(S(=O)(=O)Nc2ncccn2)cc1`, the TGI in assay [10] was > 100 µM; in assay [1] it was > 100 µM; in assay [2], > 100 µM; in [3], 51.7 µM; in assay [4], > 100 µM; in assay [5], > 100 µM. Besides, the TGI in [7], in assay [8] and in [9] was > 100 µM in each case.

For the compound `Nc1nc(CC2(O)CCCCC2)cc(-c2ccccc2)n1`, the TGI in assay [10] is > 81 µM; in assay [1], > 100 µM; in assay [2], > 49.2 µM; in assay [3] it was > 63.6 µM; in [4], > 55.5 µM; in [5], > 100 µM. The results for the TGI in assay [7], in [8] and in assay [9] were > 51 µM, > 66 µM and > 57.5 µM, respectively.

For `CNC(=S)N(C1CCCCC1)C1CCCCC1`, the TGI in assay [10], in [1], in assay [2], in assay [3], in [4] and in [5] was > 100 µM in each case. For the same compound, the TGI in assay [7], in assay [8] and in [9] was > 100 µM each time.

For `CC(=O)OC1(C#N)CC2OC1C1N=NN(C(=O)OC(C)(C)C)C21` (stereo unspecified), the TGI in assay [10] is > 100 µM; in [1], > 100 µM; in assay [2], > 100 µM; in [3], > 80.6 µM; in assay [4] it was > 31.6 µM; in assay [5], > 100 µM. For the same compound, the TGI in [7] was 15.5 µM; in assay [8], > 100 µM; in assay [9], > 31.6 µM.

As to `CC(C)(C)C1CCC(=O)C(C(O)CC2CC(=O)N(c3ccccc3)C(=O)C2)C1` (stereo unspecified), the TGI in assay [10], in assay [1], in [2], in assay [3], in assay [4] and in assay [5] was > 100 µM in each case. In addition, the total growth inhibition concentration (TGI) in assay [7], in assay [8] and in assay [9] was > 100 µM throughout.

For the compound `CCOc1ccc(N=Cc2ccc3ccccc3n2)cc1`, the TGI in assay [10], in assay [1], in assay [2], in assay [3], in [4] and in assay [5] was > 100 µM each time. Further, the TGI in assay [7], in [8] and in [9] was > 100 µM in each case.

On to `COc1cc(=O)oc(/C=C/C=C/C=C/C(C)=C\C2(C)OC(C)C(C)(O)C2O)c1C` (stereo unspecified), for which the total growth inhibition concentration (TGI) in assay [1], in assay [2], in [3], in assay [4], in assay [5] and in assay [6] was > 100 µM throughout. Also, the TGI in assay [7] and in assay [8] was > 100 µM throughout.

Take `CCOC(=O)NC(=O)c1cn(C2OC(COC(=O)CCCCCCCCC(=O)OCC3OC(n4cc(C(=O)NC(=O)OCC)c(=O)[nH]c4=O)C4OC(C)(C)OC34)C3OC(C)(C)OC32)c(=O)[nH]c1=O` (stereo unspecified): the TGI in [10], in assay [1], in assay [2], in [3], in assay [4] and in assay [5] was > 100 µM throughout. Besides, the TGI in assay [7], in assay [8] and in assay [9] was > 100 µM in each case.

Turning to `N/C(=N\N=C\c1ccc(O)c(O)c1)NO`, the TGI in assay [10], in [1], in assay [2], in assay [3], in assay [4] and in assay [5] was > 100 µM in each case. The TGI in assay [7], in assay [8] and in assay [9] was > 100 µM each time.

As for `Cn1cc2ccccc2c1-c1nc(F)nc(Nc2ccc(N)cc2)n1`, the TGI in [10] was 32.1 µM; in assay [1], > 100 µM; in assay [2], 57.3 µM; in assay [3], 48.3 µM; in assay [4], 27 µM; in assay [5] it was 56.3 µM. Further, the TGI in [7] is 35.1 µM; in assay [8], 31.5 µM; in [9] it was 45 µM.

As to `CC1=CC2=C(C#N)C(=O)OC2(C)C(c2ccccc2)C1` (stereo unspecified), the concentration for total growth inhibition (TGI) in assay [1], in assay [2], in assay [3], in assay [4], in assay [5] and in [6] was > 100 µM in each case. For the same compound, the total growth inhibition concentration (TGI) in [7] and in assay [8] was > 100 µM in each case.

On to `CC(CCC(=O)O)c1ccc(Br)cc1` (stereo unspecified), for which the TGI in [10], in [1], in assay [2], in [3], in assay [4] and in assay [5] was > 100 µM each time. The TGI in assay [7], in assay [8] and in assay [9] was > 100 µM each time.

One may read the TGI as the concentration giving total growth inhibition. As a reminder, the GI50 is the concentration at which growth is held to half of that of the control.
